Source: PubChem BioAssay (NCI)
Several values for one entry are separate records, joined by “and”; a condition that tells them apart may be missing. Equal values may be shown once.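 48-hour exposure; five concentrations; linearly interpolated endpoints. The concentration for 50% growth inhibition is given as GI50. TGI is the concentration that stops growth completely.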

Key:
Assay in all cases: growth of human tumour cells (NCI), 48 h
HT29 colon = tested on: HT29 colon
HCT-116 colon = tested on: HCT-116 colon
BT-549 breast = tested on: BT-549 breast
786-0 renal = tested on: 786-0 renal
NCI/ADR-RES ovarian = tested on: NCI/ADR-RES ovarian
NCI-H226 lung = tested on: NCI-H226 lung
UACC-257 melanoma = tested on: UACC-257 melanoma
NCI-H522 lung = tested on: NCI-H522 lung
IGROV1 ovarian = tested on: IGROV1 ovarian
LOX IMVI melanoma = tested on: LOX IMVI melanoma

Row | Structure (SMILES) | GI50 (HT29 colon) | TGI (HT29 colon) | GI50 (HCT-116 colon) | TGI (HCT-116 colon) | GI50 (BT-549 breast) | TGI (BT-549 breast) | GI50 (786-0 renal) | TGI (786-0 renal) | GI50 (NCI/ADR-RES ovarian) | TGI (NCI/ADR-RES ovarian) | GI50 (NCI-H226 lung) | TGI (NCI-H226 lung) | GI50 (UACC-257 melanoma) | TGI (UACC-257 melanoma) | GI50 (NCI-H522 lung) | GI50 (IGROV1 ovarian) | TGI (IGROV1 ovarian) | TGI (LOX IMVI melanoma) | TGI (NCI-H522 lung) | GI50 (LOX IMVI melanoma)
1 | COC1=CC(c2ccc[nH]2)=N/C1=C\c1[nH]c(C)c(C(C)=O)c1C | 0.088 µM | > 100 µM | 0.0576 µM | > 100 µM | 0.222 µM | > 100 µM | 0.309 µM | 1.62 µM | 0.458 µM | > 100 µM | 2.6 µM | > 82.1 µM | 3.44 µM | > 100 µM | 1.6 µM | 0.696 µM | > 100 µM |  |  | 
2 | COc1ccc(-c2cc(-c3cc(C)ccc3O)[nH]c(=O)n2)cc1 |  | > 100 µM |  | > 100 µM |  |  |  | > 100 µM |  |  |  | > 100 µM |  | > 100 µM |  |  | > 100 µM | > 100 µM | 94 µM | 
3 | O=C1OC(c2ccccc2)=N/C1=C\c1cc(Cl)ccc1Cl |  | > 100 µM |  | > 100 µM |  |  |  | > 100 µM |  |  |  |  |  | > 100 µM |  |  | > 100 µM |  | > 100 µM | 
4 | O=C(O)c1c[nH]c2c(OCc3ccccc3)c3ccccc3c(O)c2c1=O | 21.7 µM | 58.8 µM | 15 µM | 28.2 µM |  |  | 21.7 µM | 43.9 µM | 16.5 µM | 47.7 µM |  |  | 11.8 µM | 24.2 µM | 25.7 µM | 18.7 µM | > 100 µM | 11 µM | > 100 µM | 3.24 µM
5 | COC1OC(COS(=O)(=O)c2ccc(C)cc2)C(O)C(OS(=O)(=O)c2ccc(C)cc2)C1OS(=O)(=O)c1ccc(C)cc1 (stereo not drawn) |  | > 100 µM |  | > 100 µM |  |  |  | > 100 µM |  |  |  | > 100 µM |  | > 100 µM |  |  | > 100 µM |  | > 100 µM | 
6 | CCOC(=O)C(=O)Nc1c(C)cccc1C(C)C |  | > 100 µM |  | > 100 µM |  |  |  | > 100 µM |  |  |  | > 100 µM |  | > 100 µM |  |  | > 100 µM |  | > 100 µM | 
7 | Cc1ccc(-c2nc(N)c(C#N)c3c2CCOc2c-3ccc3ccccc23)cc1 | 0.387 µM | 54.1 µM | 0.21 µM |  | 3.85 µM | 54 µM | 0.363 µM | 12.7 µM | 0.331 µM | 31.5 µM | > 100 µM | > 100 µM | 0.474 µM | > 100 µM | 0.507 µM | 0.359 µM | > 100 µM |  | > 100 µM | 
8 | COC(=O)CS(=O)c1ccccc1 (stereo not drawn) |  | > 100 µM |  | > 100 µM |  |  |  | 72.4 µM |  |  |  |  |  | > 100 µM |  |  | 54 µM | 44.4 µM | 30.1 µM | 
9 | O=C(O)c1cccc2cccc(C(=O)O)c12.[Hg] | 13.8 µM | 27.2 µM | 15.9 µM | 29.3 µM |  |  | 15.4 µM | 29.1 µM |  |  | 21.1 µM | 40.7 µM | 16.7 µM | 30.8 µM | 0.687 µM | 15.8 µM | 29.2 µM | 27.9 µM | 2.42 µM | 14.7 µM
10 | COC(=O)C1=C(CS(=O)c2ccc([N+](=O)[O-])cc2[N+](=O)[O-])ON(C)C1c1ccccc1 (stereo not drawn) |  | 55.2 µM |  | > 100 µM |  |  |  | > 100 µM |  |  |  | > 100 µM |  | > 100 µM |  |  | > 100 µM | 35 µM | 32.1 µM | 
11 | COC(=O)C(Cc1ccccc1)NC(=O)Cn1ccnc1[N+](=O)[O-] (stereo not drawn) |  | > 100 µM |  |  |  |  |  | > 100 µM |  |  |  | > 100 µM |  | > 100 µM |  |  | > 100 µM | > 100 µM | > 100 µM | 
12 | O=C1c2cc([N+](=O)[O-])cc3cc([N+](=O)[O-])cc(c23)C(=O)N1CCCNCCNCCCN1C(=O)c2cc([N+](=O)[O-])cc3cc([N+](=O)[O-])cc(c23)C1=O |  | 5.25 µM |  | 0.667 µM |  | 5.51 µM |  | 3.35 µM |  | > 100 µM |  | 2.57 µM |  | 2.52 µM |  |  | 1.74 µM |  | 1.13 µM | 
13 | CCOC(=O)N[C@@H]1C2CC(=O)C(O2)[C@@H]1OC (stereo partly drawn) |  | > 100 µM |  | > 100 µM |  |  |  | > 100 µM |  |  |  | > 100 µM |  | > 100 µM |  |  | > 100 µM | > 100 µM | > 100 µM | 
14 | N#C/C(=C1C=C/C(=N\O)C(Cl)=C\1)c1ccccc1 | 3.35 µM | 10.9 µM | 0.382 µM | 11.4 µM | 4.36 µM | 16.2 µM | 0.745 µM | 11.9 µM | 1.66 µM | 5.17 µM | 3.13 µM | 12.4 µM | 4.49 µM | 28.2 µM | 1.98 µM | 4.26 µM | 23.7 µM |  | 7.92 µM | 
15 | NC(=O)Nc1c([N+](=O)[O-])cc(C(F)(F)F)cc1[N+](=O)[O-] |  | > 100 µM |  | > 100 µM |  |  |  | > 100 µM |  |  |  | > 100 µM |  | > 100 µM |  |  | > 100 µM | > 100 µM | > 100 µM | 
16 | NCCCNCCSSC/C=C\CSSCCNCCCN |  | 31.4 µM and 27.5 µM |  |  |  |  |  | > 100 µM |  |  |  |  |  | > 100 µM and 76.8 µM |  |  | > 100 µM | > 100 µM | 42.5 µM and 24.7 µM | 
17 | Cc1ccc(C(=O)C#Cc2c[nH]c(=O)[nH]c2=O)cc1 |  | 49.5 µM |  | 18.5 µM |  |  |  | 26.2 µM |  |  |  | 34.5 µM |  | 34.6 µM |  |  | 31.2 µM | 15 µM |  | 
18 | CSc1nc(C)c(Br)c(=O)n1C1OC(COC(C)=O)C(OC(C)=O)C(OC(C)=O)C1OC(C)=O (stereo not drawn) |  | > 100 µM | > 88.4 µM and 35 µM | > 100 µM |  |  | 74 µM and 26.3 µM | > 100 µM and 48.5 µM |  | > 100 µM | > 100 µM and 36 µM | > 100 µM | > 100 µM and 39 µM | > 100 µM | > 100 µM and 30.9 µM | > 100 µM and 27.4 µM | > 100 µM and 71.5 µM | > 100 µM | > 100 µM | 
19 | Cc1ccc(NC2=C(Cl)C(=O)N(Cc3ccccc3)C2=O)cc1Cl | 14.3 µM | 36.6 µM | 3.01 µM | 12.5 µM | 1.68 µM | 14.9 µM | 6.39 µM | 21 µM | 6.11 µM | 20.6 µM | 0.144 µM | 3.83 µM |  |  | 2.97 µM |  |  | 14.2 µM | 15.4 µM | 2.53 µM
